Experimental data as given in ChEMBL document CHEMBL4308841, “Synthesis, in vitro antiproliferative activity, and kinase inhibitory effects of pyrazole-containing diarylureas and diarylamides” (Eur J Med Chem, 2018).

Experiments:
[1] = tested on: MCF7; test: Growth inhibition of human MCF7 cells assessed as cell growth at 0.01 uM incubated for 48 hrs by sulforhodamine B assay relative to control; assay type: functional; settings: MCF7, 48 h, read-out: Activity
[2] = molecular target: Serine/threonine-protein kinase A-Raf (Homo sapiens) (UniProt P10398); test: Inhibition of human ARAF at 10 uM using MEK1 (K97R) as substrate after 40 mins in presence of [gamma33P]ATP by scintillation counting method relative to control
[3] = tested on: NCI-H322M; test: Growth inhibition of human NCI-H322M cells incubated for 48 hrs by sulforhodamine B assay; assay type: functional, cell-based
[4] = tested on: CAKI-1; test: Growth inhibition of human Caki1 cells assessed as cell growth at 100 uM incubated for 48 hrs by sulforhodamine B assay relative to control; assay type: functional; settings: CAKI-1, 48 h, read-out: Activity
[5] = molecular target: Receptor-type tyrosine-protein kinase FLT3 (Homo sapiens) (UniProt P36888); test: Inhibition of human FLT3 at 10 uM using EAIYAAPFAKKK as substrate after 40 mins in presence of [gamma33P]ATP by scintillation counting method relative to control
[6] = tested on: Malme-3M; test: Growth inhibition of human MALME-3M cells incubated for 48 hrs by sulforhodamine B assay; assay type: functional, cell-based
[7] = molecular target: Platelet-derived growth factor receptor beta (Homo sapiens) (UniProt P09619); test: Inhibition of human PDGFRb at 10 uM using poly[Glu:Tyr] (4:1) as substrate after 40 mins in presence of [gamma33P]ATP by scintillation counting method relative to control
[8] = tested on: OVCAR-4; test: Growth inhibition of human OVCAR4 cells assessed as cell growth at 100 uM incubated for 48 hrs by sulforhodamine B assay relative to control; assay type: functional; settings: OVCAR-4, 48 h, read-out: Activity
[9] = tested on: Hs-578T; test: Growth inhibition of human Hs578T cells assessed as cell growth at 0.1 uM incubated for 48 hrs by sulforhodamine B assay relative to control; assay type: functional; settings: read-out: Activity
[10] = tested on: NCI/ADR-RES; test: Growth inhibition of human NCI/ADR-RES cells assessed as cell growth at 0.1 uM incubated for 48 hrs by sulforhodamine B assay relative to control; assay type: functional; settings: read-out: Activity
[11] = molecular target: DNA-dependent protein kinase catalytic subunit (Homo sapiens) (UniProt P78527); test: Inhibition of human DNAPK at 10 uM using EPPLSQEAFADLWKK as substrate after 40 mins in presence of [gamma33P]ATP by scintillation counting method relative to control
[12] = molecular target: Macrophage colony-stimulating factor 1 receptor (Homo sapiens) (UniProt P07333); test: Inhibition of human FMS at 10 uM using poly[Glu:Tyr] (4:1) as substrate after 40 mins in presence of [gamma33P]ATP by scintillation counting method relative to control
[13] = tested on: NCI-H522; test: Growth inhibition of human NCI-H522 cells assessed as cell growth at 1 uM incubated for 48 hrs by sulforhodamine B assay relative to control; assay type: functional; settings: NCI-H522, 48 h, read-out: Activity
[14] = tested on: HOP-92; test: Growth inhibition of human HOP92 cells assessed as cell growth at 0.1 uM incubated for 48 hrs by sulforhodamine B assay relative to control; assay type: functional; settings: HOP-92, 48 h, read-out: Activity
[15] = molecular target: Vascular endothelial growth factor receptor 2 (Homo sapiens) (UniProt P35968); test: Inhibition of human VEGFR2 at 10 uM using poly[Glu:Tyr] (4:1) as substrate after 40 mins in presence of [gamma33P]ATP by scintillation counting method relative to control
[16] = tested on: UO-31; test: Growth inhibition of human UO31 cells assessed as cell growth at 0.01 uM incubated for 48 hrs by sulforhodamine B assay relative to control; assay type: functional; settings: UO-31, 48 h, read-out: Activity
[17] = tested on: MCF7; test: Growth inhibition of human MCF7 cells assessed as cell growth at 0.1 uM incubated for 48 hrs by sulforhodamine B assay relative to control; assay type: functional; settings: MCF7, 48 h, read-out: Activity
[18] = tested on: TK-10; test: Growth inhibition of human TK10 cells assessed as cell growth at 1 uM incubated for 48 hrs by sulforhodamine B assay relative to control; assay type: functional; settings: TK-10, 48 h, read-out: Activity
[19] = tested on: HOP-92; test: Growth inhibition of human HOP92 cells assessed as cell growth at 0.01 uM incubated for 48 hrs by sulforhodamine B assay relative to control; assay type: functional; settings: HOP-92, 48 h, read-out: Activity
[20] = tested on: A549; test: Growth inhibition of human A549/ATCC cells assessed as cell growth at 0.1 uM incubated for 48 hrs by sulforhodamine B assay relative to control; assay type: functional; settings: A549, 48 h, read-out: Activity
[21] = molecular target: Tyrosine-protein kinase JAK1 (Homo sapiens) (UniProt P23458); test: Inhibition of human JAK1 at 10 uM using poly[Glu:Tyr] (4:1) as substrate after 40 mins in presence of [gamma33P]ATP by scintillation counting method relative to control
[22] = tested on: SW-620; test: Growth inhibition of human SW620 cells incubated for 48 hrs by sulforhodamine B assay; assay type: functional, cell-based; settings: SW-620, 48 h
[23] = tested on: TK-10; test: Growth inhibition of human TK10 cells assessed as cell growth at 0.01 uM incubated for 48 hrs by sulforhodamine B assay relative to control; assay type: functional; settings: TK-10, 48 h, read-out: Activity
[24] = molecular target: ALK tyrosine kinase receptor (Homo sapiens) (UniProt Q9UM73); test: Inhibition of human ALK at 10 uM using poly[Glu:Tyr] (4:1) as substrate after 40 mins in presence of [gamma33P]ATP by scintillation counting method relative to control
[25] = tested on: T47D; test: Growth inhibition of human T47D cells assessed as cell growth at 100 uM incubated for 48 hrs by sulforhodamine B assay relative to control; assay type: functional; settings: read-out: Activity
[26] = tested on: RPMI-8226; test: Induction of apoptosis in human RPMI8226 cells assessed as increase in caspase 3/7 level; assay type: functional, cell-based
[27] = tested on: 786-0; test: Growth inhibition of human 786-0 cells assessed as cell growth at 0.1 uM incubated for 48 hrs by sulforhodamine B assay relative to control; assay type: functional; settings: 786-0, 48 h, read-out: Activity
[28] = tested on: TK-10; test: Growth inhibition of human TK10 cells assessed as cell growth at 100 uM incubated for 48 hrs by sulforhodamine B assay relative to control; assay type: functional; settings: TK-10, 48 h, read-out: Activity
[29] = tested on: CAKI-1; test: Growth inhibition of human Caki1 cells assessed as cell growth at 0.01 uM incubated for 48 hrs by sulforhodamine B assay relative to control; assay type: functional; settings: CAKI-1, 48 h, read-out: Activity
[30] = tested on: HOP-92; test: Growth inhibition of human HOP92 cells assessed as cell growth at 10 uM incubated for 48 hrs by sulforhodamine B assay relative to control; assay type: functional; settings: HOP-92, 48 h, read-out: Activity
[31] = read-out: pLC50 (the source's name) (converted)
[32] = read-out: LC50 (the source's name)

Chain of DNA-dependent protein kinase catalytic subunit (Homo sapiens) (P78527 whole entry): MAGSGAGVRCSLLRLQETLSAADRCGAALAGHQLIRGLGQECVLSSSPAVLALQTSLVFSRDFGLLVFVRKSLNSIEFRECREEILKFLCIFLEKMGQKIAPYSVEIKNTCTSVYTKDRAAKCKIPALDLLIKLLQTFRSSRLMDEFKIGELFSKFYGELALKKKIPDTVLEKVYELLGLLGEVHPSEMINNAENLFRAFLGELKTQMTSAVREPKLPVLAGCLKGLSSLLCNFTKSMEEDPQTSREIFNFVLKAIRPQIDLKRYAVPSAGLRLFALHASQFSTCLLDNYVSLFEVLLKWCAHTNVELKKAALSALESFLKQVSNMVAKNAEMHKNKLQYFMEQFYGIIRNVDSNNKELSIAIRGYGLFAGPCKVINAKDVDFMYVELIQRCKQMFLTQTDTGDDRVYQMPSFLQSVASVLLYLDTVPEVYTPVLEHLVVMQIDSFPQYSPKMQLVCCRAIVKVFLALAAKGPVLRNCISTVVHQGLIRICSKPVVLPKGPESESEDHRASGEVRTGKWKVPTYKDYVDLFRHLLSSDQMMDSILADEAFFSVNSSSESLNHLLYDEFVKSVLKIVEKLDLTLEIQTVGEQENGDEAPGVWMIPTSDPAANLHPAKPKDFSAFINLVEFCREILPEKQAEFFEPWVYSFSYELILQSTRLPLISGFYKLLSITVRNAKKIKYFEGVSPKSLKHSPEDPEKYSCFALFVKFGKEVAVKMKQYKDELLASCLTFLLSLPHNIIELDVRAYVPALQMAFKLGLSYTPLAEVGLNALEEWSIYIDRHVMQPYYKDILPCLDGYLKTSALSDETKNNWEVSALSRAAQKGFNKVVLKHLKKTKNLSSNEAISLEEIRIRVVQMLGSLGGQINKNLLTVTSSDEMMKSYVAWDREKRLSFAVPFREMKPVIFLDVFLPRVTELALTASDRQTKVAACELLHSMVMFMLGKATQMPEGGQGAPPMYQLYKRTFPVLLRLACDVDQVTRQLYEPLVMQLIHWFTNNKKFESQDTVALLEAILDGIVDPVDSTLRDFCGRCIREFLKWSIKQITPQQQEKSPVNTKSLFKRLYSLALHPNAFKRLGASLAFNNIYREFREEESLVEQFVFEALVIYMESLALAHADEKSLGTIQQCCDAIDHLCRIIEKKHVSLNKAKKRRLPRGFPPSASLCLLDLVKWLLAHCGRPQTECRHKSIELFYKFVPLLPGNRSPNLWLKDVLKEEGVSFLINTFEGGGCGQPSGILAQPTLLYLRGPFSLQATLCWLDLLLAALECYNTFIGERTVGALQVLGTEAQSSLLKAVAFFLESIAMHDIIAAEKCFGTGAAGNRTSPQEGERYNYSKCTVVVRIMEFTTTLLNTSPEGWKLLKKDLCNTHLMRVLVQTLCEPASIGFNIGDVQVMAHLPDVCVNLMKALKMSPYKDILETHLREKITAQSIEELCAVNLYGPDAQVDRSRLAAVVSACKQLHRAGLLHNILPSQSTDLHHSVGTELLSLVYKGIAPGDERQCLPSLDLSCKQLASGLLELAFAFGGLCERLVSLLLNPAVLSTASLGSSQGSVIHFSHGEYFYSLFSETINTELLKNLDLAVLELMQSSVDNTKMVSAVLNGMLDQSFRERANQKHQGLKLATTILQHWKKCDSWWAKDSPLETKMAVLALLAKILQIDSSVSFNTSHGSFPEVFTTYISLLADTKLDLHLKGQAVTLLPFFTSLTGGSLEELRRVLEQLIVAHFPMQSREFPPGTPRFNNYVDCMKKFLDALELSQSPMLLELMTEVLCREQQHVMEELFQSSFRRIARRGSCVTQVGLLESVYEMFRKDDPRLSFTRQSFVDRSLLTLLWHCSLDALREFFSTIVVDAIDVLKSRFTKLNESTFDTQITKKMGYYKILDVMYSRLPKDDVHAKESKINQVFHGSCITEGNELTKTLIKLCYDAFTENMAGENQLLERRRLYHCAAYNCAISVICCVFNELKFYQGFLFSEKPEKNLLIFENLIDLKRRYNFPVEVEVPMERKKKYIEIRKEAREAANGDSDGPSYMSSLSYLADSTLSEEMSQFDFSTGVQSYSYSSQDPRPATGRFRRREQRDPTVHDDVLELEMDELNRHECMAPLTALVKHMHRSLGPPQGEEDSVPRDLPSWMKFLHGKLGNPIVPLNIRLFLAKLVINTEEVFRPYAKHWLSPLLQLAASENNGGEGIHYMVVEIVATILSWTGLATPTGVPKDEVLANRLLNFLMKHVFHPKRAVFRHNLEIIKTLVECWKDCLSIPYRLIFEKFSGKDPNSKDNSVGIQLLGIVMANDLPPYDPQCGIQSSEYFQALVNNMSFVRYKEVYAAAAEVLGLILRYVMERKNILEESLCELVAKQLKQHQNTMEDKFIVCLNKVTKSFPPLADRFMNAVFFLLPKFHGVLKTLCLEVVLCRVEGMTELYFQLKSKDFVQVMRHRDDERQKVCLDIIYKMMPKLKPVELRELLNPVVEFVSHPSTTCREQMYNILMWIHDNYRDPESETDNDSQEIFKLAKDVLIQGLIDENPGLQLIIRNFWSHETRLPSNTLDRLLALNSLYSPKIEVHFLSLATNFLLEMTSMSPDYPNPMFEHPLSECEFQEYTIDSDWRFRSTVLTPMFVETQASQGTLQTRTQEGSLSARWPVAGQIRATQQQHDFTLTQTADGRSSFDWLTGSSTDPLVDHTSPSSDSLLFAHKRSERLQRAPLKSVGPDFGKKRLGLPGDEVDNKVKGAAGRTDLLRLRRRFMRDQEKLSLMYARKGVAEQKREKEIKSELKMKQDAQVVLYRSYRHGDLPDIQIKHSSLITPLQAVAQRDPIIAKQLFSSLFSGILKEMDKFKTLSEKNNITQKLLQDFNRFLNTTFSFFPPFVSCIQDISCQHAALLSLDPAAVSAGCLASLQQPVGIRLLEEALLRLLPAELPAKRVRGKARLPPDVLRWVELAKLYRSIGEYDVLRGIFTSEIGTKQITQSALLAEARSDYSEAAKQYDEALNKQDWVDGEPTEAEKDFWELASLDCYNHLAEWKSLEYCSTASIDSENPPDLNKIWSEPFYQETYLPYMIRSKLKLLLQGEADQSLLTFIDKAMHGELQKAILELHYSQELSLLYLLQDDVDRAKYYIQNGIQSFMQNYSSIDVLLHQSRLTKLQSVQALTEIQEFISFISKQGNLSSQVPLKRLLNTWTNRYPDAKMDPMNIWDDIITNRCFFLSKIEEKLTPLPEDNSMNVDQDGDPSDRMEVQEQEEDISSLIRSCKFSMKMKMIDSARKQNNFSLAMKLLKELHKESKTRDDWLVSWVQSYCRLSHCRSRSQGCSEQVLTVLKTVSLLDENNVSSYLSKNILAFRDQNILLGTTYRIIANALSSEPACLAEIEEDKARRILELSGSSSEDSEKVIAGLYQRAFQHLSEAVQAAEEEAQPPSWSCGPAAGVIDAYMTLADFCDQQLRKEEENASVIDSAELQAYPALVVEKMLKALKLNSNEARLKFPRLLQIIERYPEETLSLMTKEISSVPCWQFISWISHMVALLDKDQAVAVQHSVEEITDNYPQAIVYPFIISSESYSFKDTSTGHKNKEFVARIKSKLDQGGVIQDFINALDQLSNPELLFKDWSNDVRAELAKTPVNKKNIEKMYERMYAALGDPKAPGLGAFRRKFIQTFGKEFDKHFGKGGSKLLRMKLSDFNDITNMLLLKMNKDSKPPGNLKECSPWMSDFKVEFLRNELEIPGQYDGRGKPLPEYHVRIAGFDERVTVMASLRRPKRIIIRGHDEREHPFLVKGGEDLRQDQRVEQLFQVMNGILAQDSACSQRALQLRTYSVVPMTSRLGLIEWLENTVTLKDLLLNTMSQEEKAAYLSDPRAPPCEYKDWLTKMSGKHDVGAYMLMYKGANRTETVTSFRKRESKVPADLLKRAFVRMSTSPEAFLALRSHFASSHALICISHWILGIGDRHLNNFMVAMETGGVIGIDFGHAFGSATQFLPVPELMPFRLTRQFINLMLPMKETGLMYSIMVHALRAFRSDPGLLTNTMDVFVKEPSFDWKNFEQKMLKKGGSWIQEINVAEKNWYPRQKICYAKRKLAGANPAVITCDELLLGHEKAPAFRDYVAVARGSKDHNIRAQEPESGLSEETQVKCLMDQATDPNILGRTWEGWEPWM
Chain of Macrophage colony-stimulating factor 1 receptor (Homo sapiens) (P07333 whole entry): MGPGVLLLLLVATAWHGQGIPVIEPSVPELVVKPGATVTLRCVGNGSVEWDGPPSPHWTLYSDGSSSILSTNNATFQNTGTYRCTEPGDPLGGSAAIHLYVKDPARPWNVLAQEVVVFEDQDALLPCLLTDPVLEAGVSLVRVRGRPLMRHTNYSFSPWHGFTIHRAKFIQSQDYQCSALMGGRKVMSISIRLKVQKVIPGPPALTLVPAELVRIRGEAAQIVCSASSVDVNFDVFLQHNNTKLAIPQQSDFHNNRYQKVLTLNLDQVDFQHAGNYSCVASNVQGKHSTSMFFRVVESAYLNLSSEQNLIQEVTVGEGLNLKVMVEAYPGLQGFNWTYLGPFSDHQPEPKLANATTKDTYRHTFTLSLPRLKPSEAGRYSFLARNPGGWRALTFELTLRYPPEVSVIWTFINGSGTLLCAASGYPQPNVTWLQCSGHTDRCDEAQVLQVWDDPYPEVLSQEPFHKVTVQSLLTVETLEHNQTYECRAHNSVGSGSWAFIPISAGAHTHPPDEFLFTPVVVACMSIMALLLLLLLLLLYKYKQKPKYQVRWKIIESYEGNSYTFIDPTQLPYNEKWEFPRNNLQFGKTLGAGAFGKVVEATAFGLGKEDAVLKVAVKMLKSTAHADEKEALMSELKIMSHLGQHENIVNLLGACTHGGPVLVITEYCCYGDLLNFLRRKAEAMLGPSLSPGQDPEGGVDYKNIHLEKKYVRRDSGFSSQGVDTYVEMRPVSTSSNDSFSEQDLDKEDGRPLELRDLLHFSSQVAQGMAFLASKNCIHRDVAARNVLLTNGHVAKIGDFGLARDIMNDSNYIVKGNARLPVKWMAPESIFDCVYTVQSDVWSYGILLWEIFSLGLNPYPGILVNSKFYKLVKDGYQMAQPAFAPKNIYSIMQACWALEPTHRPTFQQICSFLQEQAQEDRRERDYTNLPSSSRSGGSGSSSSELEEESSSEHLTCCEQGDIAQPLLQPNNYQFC

COc1cc(Cl)cc(-c2nn(-c3cccc(NC(=O)Nc4cc(C(F)(F)F)cc(C(F)(F)F)c4)c3)cc2-c2ccncc2)c1
growth at 0.01 µM [1]: 58%
inhibition [2]: 49.2%
IC50 [3]: 930 nM
GI50 ([3]; read-out: GI50): 933 nM
TGI ([3]; read-out: TGI): 10.9 µM
GI50 ([3]; read-out: pGI50 (converted)): 933 nM
CC50 [3, 31]: 46.8 µM
TGI ([3]; read-out: pTGI (converted)): 11 µM
growth at 100 µM [4]: -61%
inhibition [5]: -2.82%
IC50 [6]: 530 nM
GI50 ([6]; read-out: GI50): 530 nM
CC50 [6, 32]: > 100 µM
TGI ([6]; read-out: TGI): 3.57 µM
GI50 ([6]; read-out: pGI50 (converted)): 537 nM
CC50 [6, 31]: > 100 µM
TGI ([6]; read-out: pTGI (converted)): 3.55 µM
inhibition [7]: -9.26%
growth at 100 µM [8]: -22%
growth at 0.1 µM [9]: 95%
growth at 0.1 µM [10]: 95%
inhibition [11]: 3.5%
inhibition [12]: -0.94%
growth at 1 µM [13]: 18%
growth at 0.1 µM [14]: 83%
inhibition [15]: -5.83%
growth at 0.01 µM [16]: 79%
growth at 0.1 µM [17]: 91%
growth at 1 µM [18]: 42%
growth at 0.01 µM [19]: 93%
growth at 0.1 µM [20]: 95%
inhibition [21]: 10.7%
IC50 [22]: 390 nM
GI50 ([22]; read-out: GI50): 300 nM
LC50 ([22]; read-out: LC50): 0.015 µM
TGI ([22]; read-out: TGI): 2 µM
GI50 ([22]; read-out: pGI50 (converted)): 389 nM
LC50 ([22]; read-out: pLC50 (converted)): 15.1 µM
TGI ([22]; read-out: pTGI (converted)): 2 µM
growth at 0.01 µM [23]: 96%
inhibition [24]: -3.77%
growth at 100 µM [25]: -22%
EC50 [26]: 1520 nM
growth at 0.1 µM [27]: 92%
growth at 100 µM [28]: -91%
growth at 0.01 µM [29]: 97%

O=C(Nc1cccc(-n2cc(-c3ccncc3)c(-c3cc(O)cc(Cl)c3)n2)c1)Nc1ccc(Cl)c(Cl)c1
growth at 0.01 µM [1]: 93%
GI50 ([3]; read-out: GI50): 1780 nM
CC50 [3, 32]: > 100 µM
TGI ([3]; read-out: TGI): 76.1 µM
GI50 ([3]; read-out: pGI50 (converted)): 1780 nM
CC50 [3, 31]: > 100 µM
TGI ([3]; read-out: pTGI (converted)): 7.76 µM
growth at 100 µM [4]: -12%
GI50 ([6]; read-out: GI50): 1000 nM
CC50 [6, 32]: > 100 µM
TGI ([6]; read-out: TGI): 54 µM
GI50 ([6]; read-out: pGI50 (converted)): 1780 nM
CC50 [6, 31]: > 100 µM
TGI ([6]; read-out: pTGI (converted)): 5.25 µM
growth at 100 µM [8]: 9%
growth at 0.1 µM [9]: 92%
growth at 0.1 µM [10]: 105%
growth at 10 µM [30]: -30.5%
growth at 1 µM [13]: 54%
growth at 0.01 µM [16]: 93%
growth at 0.1 µM [17]: 97%
growth at 0.1 µM [20]: 99%
GI50 ([22]; read-out: GI50): 3220 nM
LC50 ([22]; read-out: LC50): > 100 µM
TGI ([22]; read-out: TGI): 99.7 µM
GI50 ([22]; read-out: pGI50 (converted)): 3240 nM
LC50 ([22]; read-out: pLC50 (converted)): > 100 µM
TGI ([22]; read-out: pTGI (converted)): 10 µM
growth at 100 µM [25]: -39%
growth at 0.1 µM [27]: 90%
growth at 0.01 µM [29]: 100%
